In ChEMBL document CHEMBL1153123, “Antiplasmodial activity of piperazine sulfonamides” (Bioorg Med Chem Lett, 2010):

Key:
Plasmodium falciparum [1] = assay: Antiplasmodial activity against Plasmodium falciparum Dd2 in human O+ erythrocytes after 72 hrs by DAPI staining; assay type: functional, organism-based; settings: Dd2, 72 h
Plasmodium falciparum [2] = assay: Antiplasmodial activity against Plasmodium falciparum 3D7 in human O+ erythrocytes after 72 hrs by DAPI staining; assay type: functional, organism-based; settings: 3D7, 72 h

SMILES | EC50 (Plasmodium falciparum [1]) [nM] | EC50 (Plasmodium falciparum [2]) [nM]
O=[N+]([O-])c1ccc(S(=O)(=O)N2CCN(Cc3ccccc3)CC2)cc1 | > 10000 | 
O=[N+]([O-])c1ccc(S(=O)(=O)N2CCN(C(=S)NCCc3ccccc3)CC2)cc1 | 211 | 
O=[N+]([O-])c1ccc(S(=O)(=O)N2CCN(C(=S)NCC3CCCO3)CC2)cc1 (stereo not drawn) | 337 | 313
O=S(=O)(c1ccc2c(c1)OCCO2)N1CCN(C(=S)NCc2ccccc2)CC1 | > 10000 | 6490
CS(=O)(=O)N1CCN(C(=S)NCc2ccco2)CC1 | > 10000 | > 10000
O=S(=O)(c1ccccc1F)N1CCN(C(=S)NCc2ccccc2)CC1 | 3130 | 2410
O=S(=O)(c1ccc(Cl)cc1)N1CCN(C(=S)NCc2ccc(Cl)cc2)CC1 | 400 | 
C/N=C(/SCc1ccccc1)N1CCN(S(=O)(=O)c2ccc([N+](=O)[O-])cc2)CC1 | 13000 | 11400
O=S(=O)(c1ccc(Br)cc1Cl)N1CCN(C(=S)NCc2ccccc2)CC1 | 873 | 830
O=C(NCc1ccco1)N1CCN(S(=O)(=O)c2ccc([N+](=O)[O-])cc2)CC1 | 4480 | 6410
O=[N+]([O-])c1ccc(S(=O)(=O)N2CCC(C(=S)NCc3ccccc3)CC2)cc1 | 6190 | 6060
O=[N+]([O-])c1ccc(S(=O)(=O)N2CCN(C(=S)CCc3ccccc3)CC2)cc1 | 1690 | 1250
Cc1cc(Nc2ccccc2)nc(N2CCN(S(=O)(=O)c3ccc([N+](=O)[O-])cc3)CC2)n1 | 10000 | 11100
Cc1cc(NCc2ccccc2)nc(N2CCN(S(=O)(=O)c3ccc([N+](=O)[O-])cc3)CC2)n1 | 5810 | 3970
O=[N+]([O-])c1ccc(S(=O)(=O)N2CCN(C/C=C/c3ccccc3)CC2)cc1 | 6050 | 
O=[N+]([O-])c1ccc(S(=O)(=O)N2CCN(C(=S)NCc3ccccc3)CC2)cc1 | 103 | 56
N=C(NCc1ccccc1)N1CCN(S(=O)(=O)c2ccc([N+](=O)[O-])cc2)CC1 | > 25000 | > 25000
O=S(=O)(c1ccc(F)cc1)N1CCN(C(=S)NCc2ccccc2)CC1 | 492 | 447
CCNC(=S)N1CCN(S(=O)(=O)c2ccccc2C(F)(F)F)CC1 | > 10000 | > 10000
O=S(=O)(c1c(Cl)cc(Br)cc1Cl)N1CCN(C(=S)NCc2ccccc2)CC1 | 4410 | 2670

More lines, in order of falling EC50 (Plasmodium falciparum [1]), values ahead:

EC50 (Plasmodium falciparum [1]) [nM] | EC50 (Plasmodium falciparum [2]) [nM] | SMILES
13600 | 13500 | O=C(CCc1ccccc1)N1CCN(S(=O)(=O)c2ccc([N+](=O)[O-])cc2)CC1
3740 | 5950 | O=C(NCc1ccccc1)C1CCN(S(=O)(=O)c2ccc([N+](=O)[O-])cc2)CC1
2300 | 2550 | O=C(NCc1ccco1)N1CCN(S(=O)(=O)c2ccc(Cl)cc2)CC1
1970 | 1470 | O=S(=O)(c1cccc(F)c1)N1CCN(C(=S)NCc2ccccc2)CC1
1960 | 1230 | CCOc1ccc(S(=O)(=O)N2CCN(C(=S)NCc3ccccc3)CC2)cc1
1920 | 1860 | O=S(=O)(c1ccccc1)N1CCN(C(=S)NCc2ccccc2)CC1
1610 | 1520 | O=S(=O)(c1ccc(F)c(F)c1F)N1CCN(C(=S)NCc2ccccc2)CC1
860 | 667 | O=S(=O)(c1ccc(Cl)cc1)N1CCN(C(=S)NCC2CCCO2)CC1 (stereo not drawn)
544 | 615 | O=S(=O)(c1ccc(Cl)cc1)N1CCN(C(=S)NCc2ccco2)CC1
354 | 310 | COCCNC(=S)N1CCN(S(=O)(=O)c2ccc([N+](=O)[O-])cc2)CC1
117 | 64 | O=[N+]([O-])c1ccc(S(=O)(=O)N2CCN(C(=S)NCc3ccco3)CC2)cc1
